Experimental data taken from article PMC4674085, “Towards Prebiotic Catalytic Amyloids Using High Throughput Screening” (PLoS ONE, 2015).

What was measured:
Type in all cases: physicochemical
[1] = Circular dichroism (CD), secondary structure of aggregates; parameters: key: β+: has minimum near 217 nm; β++: has minimum near 217 nm and a maximum near 197 nm; −: signal too weak to interpret; ?: spectra not typical of any secondary structure
Protocol: The concept of creating an amyloid library out of a peptide library is only meaningful if the vast majority of the peptides actually form amyloids in at least one of the conditions tested. To establish the validity of our amyloid library we measured circular dichroism (CD), Fourier transform infrared spectroscopy (ATR-FTIR), as well as thioflavin T (ThT) fluorescence of peptides 1–33 at pH 7.3 (50 mM HEPES) and pH 4 (50 mM NaOAc) (see interactive Table A and associated data in S1 File). Based on the analysis of the CD and ATR-FTIR spectra (shown in the interactive Table A in S1 File) all the peptides formed β-structured aggregates in at least one condition. Most of the 33 peptides induced a significant increase in ThT fluorescence in at least one condition. […] The fibrils from a selection of the active peptides were aligned and analyzed by X-ray diffraction (Figures C and D in S1 File). In each case we observed the cross-β diffraction pattern typical of amyloid fibrils, although the degree of sample alignment varied. For two samples, 14 and 27, the difference in meridional and equatorial diffraction intensities was small but easily detected in a plot of the angular dependence of the intensity (Figure D in S1 File). The conclusion that can be drawn out of the multiple analysis techniques is that the 33 peptides that comprise the library are overwhelmingly prone to form fibril-like, β-structured aggregates. The cross-β diffraction of the tested aggregates would imply that they are more specifically all amyloidogenic.
CD measurements were carried out on a Jasco J815. Samples were prepared by centrifuging the amyloid library at 25,000 g for 10 min and then removing the supernatant. The pellets were resuspended at an approximate concentration of 100 μg/ml in 10 mM HEPES pH 7.3 (for mixtures from 50 mM HEPES) or 10 mM NaOAc pH 4 (for mixtures from 50 mM NaOAc), the suspensions were then treated with an ultrasonic probe for 5 s, upon which the solutions were placed in 1 mm cuvettes, diluted as necessary to maintain the detector voltage below 600 V and scanned from 260–190 nm at 50 nm/min, 1 nm band-pass, 2 second integration, averaged over 3 repetitions.
(§1) Table A and associated data: Biophysical characterization of library
(§2) Sequence ThT1 CD2 FTIR3 EM4 ThT CD FTIR EM X-ray5 […]
2. […]

[2] = Transmission electron microscopy (TEM) of fibrils; parameters: key: +: ﬁbrils present; −: absent in EM micrographs; conditions: uranyl acetate stain
Protocol: The samples of the amyloid library (50 mM HEPES pH 7.3 or 50 mM NaOAc pH 4) were applied directly to glow-discharged carbon-coated grids, washed and then stained with uranyl acetate. Images were recorded on a Philips CM 12 electron microscope.
as §1, §2
4. (+) ﬁbrils present or (−) absent in EM micrographs. […]

[3] = ATR-FTIR, amide I peak of aggregates; parameters: key: indicates that no peak was observed within the typical range of stretching frequencies forβ-structure (between dashed lines at 1638 cm−1 and 1615 cm−1); conditions: air-dried pellet, crude peptide
Protocol: Samples were prepared as for the CD measurements, but instead of re-suspending the samples after centrifugation, 3 μl of H2O were added to the pellet so that it could be placed onto the diamond ATR cell of a Bruker Alpha-p ATR-FTIR spectrometer followed by air-drying before measuring the spectra. Blank subtraction was performed with an empty cell (air) and all measurements were performed without the pressure applicator.
as §1, §2
3. The peak position in amide I region is given in cm−1. […]

[4] = Thioflavin T fluorescence (ThT); conditions: crude peptide fibrillized at 160 μM, mixed 10:1 with 50 μM ThT, ex 440 nm em 480 nm
Protocol: The samples of the amyloid library (50 mM HEPES pH 7.3 or 50 mM NaOAc pH 4) were mixed 10:1 with 50 μM ThT and the increase in fluorescence was measured in a 384-well plate in a BMG Pherastar platereader (ex: 440 nm em: 480 nm). The background signal from the peptides without ThT was subtracted from the one with the ThT present in the sample. Due to the large dynamic range of the signals among the many samples, the measurements were made at two different gain settings to ensure that all of the signals fell within the measureable range.
as §1
Sequence ThT1 CD2 FTIR3 EM4 ThT CD FTIR EM X-ray5
1. Fold increase in ThT ﬂuorescence over background. […]

[5] = pH 4.0, pellet (25,000 g, 10 min) resuspended ~100 μg/ml in 10 mM NaOAc pH 4, crude peptide
[6] = pH 7.3, pellet (25,000 g, 10 min) resuspended ~100 μg/ml in 10 mM HEPES pH 7.3, crude peptide

Row | Substance | CD spectrum class [1, 5] | CD spectrum class [1, 6] | EM, fibrils in EM micrographs ([2]; pH 7.3, 50 mM HEPES) | FTIR peak position in amide I region ([3]; pH 4.0 (50 mM NaOAc)) | FTIR peak position in amide I region ([3]; pH 7.3 (50 mM HEPES)) | ThT, fold increase in ThT fluorescence over background ([4]; pH 4.0, 50 mM NaOAc) | ThT, fold increase in ThT fluorescence over background ([4]; pH 7.3, 50 mM HEPES) | EM, fibrils in EM micrographs ([2]; pH 4.0, 50 mM NaOAc)
1 | Ac-YVAVHVHV-NH2 [Peptide 27, Ac-YVAVHVHV-CONH2] | − | β+ | + | − | 1625 cm⁻¹ | 1 fold | 129 fold | 
2 | Ac-YVDVHVDV-NH2 [Peptide 25, Ac-YVDVHVDV-CONH2] | β++ | − |  | 1623 cm⁻¹ | − | 9 fold | 2 fold | +
3 | Ac-YVHVHVDV-NH2 [Peptide 21, Ac-YVHVHVDV-CONH2] |  | β+ | + | − | 1626 cm⁻¹ | 1 fold | 133 fold | +
4 | Ac-YVHVHVHV-NH2 [Peptide 8, Ac-YVHVHVHV-CONH2] | − | β+ | + | − | 1627 cm⁻¹ | 1 fold | 126 fold | −
5 | Ac-YVHVHVSV-NH2 [Peptide 11, Ac-YVHVHVSV-CONH2] | − | β++ | + | − | 1624 cm⁻¹ | 1 fold | 18 fold | 
6 | Ac-YVSVHVHV-NH2 [Peptide 9, Ac-YVSVHVHV-CONH2] | − | β++ | + | − | 1624 cm⁻¹ | 1 fold | 82 fold | 
